Data from PubChem BioAssay (NCI).
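Test compounds were applied to cells in 96-well plates for 48 hours at 5 doses. The concentration for 50% growth inhibition is given as GI50. TGI: total growth inhibition.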

What was measured:
Experiment in all cases: DTP human tumour cell line panel, 48 h; in the data active means GI50 below about 0.43 µM; inactive means the rest
[1] = tested on: A498 renal
[2] = tested on: A549 NSCLC
[3] = tested on: ACHN renal
[4] = tested on: BT-549 breast
[5] = tested on: CAKI-1 renal
[6] = tested on: CCRF-CEM leukemia
[7] = tested on: COLO 205 colon
[8] = tested on: DU-145 prostate
[9] = tested on: EKVX NSCLC
[10] = tested on: HCC-2998 colon
[11] = tested on: HCT-15 colon
[12] = tested on: HL-60(TB) leukemia
[13] = tested on: HOP-92 NSCLC
[14] = tested on: HS 578T breast
[15] = tested on: HT29 colon
[16] = tested on: IGROV1 ovarian
[17] = tested on: K-562 leukemia
[18] = tested on: LOX IMVI melanoma
[19] = tested on: M14 melanoma
[20] = tested on: MALME-3M melanoma
[21] = tested on: MCF7 breast
[22] = tested on: MDA-MB-231 breast
[23] = tested on: MDA-MB-435
[24] = tested on: MOLT-4 leukemia
[25] = tested on: NCI-H522 lung
[26] = tested on: NCI/ADR-RES ovarian
[27] = tested on: OVCAR-4 ovarian
[28] = tested on: OVCAR-8 ovarian
[29] = tested on: PC-3 prostate
[30] = tested on: RPMI-8226 leukemia
[31] = tested on: SF-268 CNS
[32] = tested on: SF-295 CNS
[33] = tested on: SK-MEL-2 melanoma
[34] = tested on: SK-MEL-28 melanoma
[35] = tested on: SK-MEL-5 melanoma
[36] = tested on: SK-OV-3 ovarian
[37] = tested on: SNB-19 CNS
[38] = tested on: SNB-75 CNS
[39] = tested on: SR leukemia
[40] = tested on: SW-620 colon
[41] = tested on: TK-10 renal
[42] = tested on: U251 CNS
[43] = tested on: UACC-257 melanoma
[44] = tested on: 786-0 renal
[45] = tested on: HCT-116 colon
[46] = tested on: HOP-62 NSCLC
[47] = tested on: KM12 colon
[48] = tested on: NCI-H226 lung
[49] = tested on: NCI-H23 lung
[50] = tested on: NCI-H460 lung
[51] = tested on: OVCAR-5 ovarian
[52] = tested on: RXF 393 renal
[53] = tested on: SF-539 CNS
[54] = tested on: SN12C renal
[55] = tested on: T-47D breast
[56] = tested on: UACC-62 melanoma
[57] = tested on: UO-31 renal

O=C(Nc1cc(C(F)(F)F)cc(C(F)(F)F)c1)Nc1ccc2oc(=O)ccc2c1
5700 nM: TGI [36]
inactive: GI50 [1] 1670 nM | GI50 [2] 2140 nM | GI50 [3] 1290 nM | GI50 [4] 2360 nM | GI50 [5] 1250 nM | GI50 [6] 1220 nM | GI50 [7] 1750 nM | GI50 [8] 2000 nM | GI50 [9] 3920 nM | GI50 [10] 2770 nM | GI50 [11] 2110 nM | GI50 [12] 705 nM | GI50 [13] 1410 nM | GI50 [14] 2440 nM | GI50 [15] 2470 nM | GI50 [16] 1510 nM | GI50 [17] 782 nM | GI50 [18] 1600 nM | GI50 [19] 2710 nM | GI50 [20] 1870 nM | GI50 [21] 2880 nM | GI50 [22] 2770 nM | GI50 [23] 2970 nM | GI50 [24] 758 nM | GI50 [25] 1400 nM | GI50 [26] 2010 nM | GI50 [27] 1250 nM | GI50 [28] 1960 nM | GI50 [29] 753 nM | GI50 [31] 2950 nM | GI50 [32] 1440 nM | GI50 [33] 1680 nM | GI50 [34] 2790 nM | GI50 [35] 1230 nM | GI50 [36] 2320 nM | GI50 [37] 1230 nM | GI50 [38] 1930 nM | GI50 [39] 997 nM | GI50 [40] 3020 nM | GI50 [41] 2990 nM | GI50 [42] 1290 nM | GI50 [43] 2020 nM
5090 nM: TGI [39]
4860 nM: TGI [5]
6590 nM: TGI [38]
3410 nM: TGI [33]
6560 nM: TGI [4]
5080 nM: TGI [20]
6360 nM: TGI [14]
4970 nM: TGI [1]
5000 nM: TGI [25]
4370 nM: TGI [18]
active: GI50 [30] 426 nM
6130 nM: TGI [43]
3460 nM: TGI [7]
2360 nM: TGI [30]
4890 nM: TGI [13]
2510 nM: TGI [35]
5740 nM: TGI [12]
> 100000 nM: TGI [2] | TGI [3] | TGI [6] | TGI [8] | TGI [9] | TGI [10] | TGI [11] | TGI [15] | TGI [16] | TGI [17] | TGI [19] | TGI [21] | TGI [22] | TGI [23] | TGI [24] | TGI [26] | TGI [27] | TGI [28] | TGI [29] | TGI [31] | TGI [32] | TGI [34] | TGI [37] | TGI [40] | TGI [41] | TGI [42]

Oc1ccc(CSc2nnc(-c3ccccc3)o2)c2cccnc12
15800 nM: TGI [53]
7470 nM: TGI [57]
11300 nM: TGI [18]
> 100000 nM: TGI [1] | TGI [2] | TGI [4] | TGI [5] | TGI [6] | TGI [7] | TGI [8] | TGI [9] | TGI [10] | TGI [45] | TGI [11] | TGI [14] | TGI [15] | TGI [16] | TGI [17] | TGI [47] | TGI [20] | TGI [21] | TGI [22] | TGI [23] | TGI [24] | TGI [48] | TGI [50] | TGI [25] | TGI [27] | TGI [51] | TGI [28] | TGI [29] | TGI [30] | TGI [31] | TGI [34] | TGI [54] | TGI [39] | TGI [40] | TGI [55] | TGI [42]
6010 nM: TGI [56]
6400 nM: TGI [35]
5360 nM: TGI [13]
15000 nM: TGI [36]
29800 nM: TGI [33]
97200 nM: TGI [52]
14000 nM: TGI [49]
21000 nM: TGI [32]
6620 nM: TGI [12]
inactive: GI50 [44] 3140 nM | GI50 [1] 4100 nM | GI50 [2] 2690 nM | GI50 [3] 2030 nM | GI50 [4] 923 nM | GI50 [5] 2870 nM | GI50 [6] 1130 nM | GI50 [7] 59300 nM | GI50 [8] 3410 nM | GI50 [9] 2620 nM | GI50 [10] 2260 nM | GI50 [45] 1650 nM | GI50 [11] 797 nM | GI50 [12] 1390 nM | GI50 [46] 2330 nM | GI50 [13] 499 nM | GI50 [14] 721 nM | GI50 [15] 6970 nM | GI50 [16] 2420 nM | GI50 [17] 2050 nM | GI50 [47] 724 nM | GI50 [18] 1560 nM | GI50 [20] 2800 nM | GI50 [21] 2450 nM | GI50 [22] 4010 nM | GI50 [23] 1080 nM | GI50 [24] 2030 nM | GI50 [48] 3780 nM | GI50 [49] 2440 nM | GI50 [50] 527 nM | GI50 [25] 2330 nM | GI50 [27] 4340 nM | GI50 [51] 6650 nM | GI50 [28] 1770 nM | GI50 [29] 1030 nM | GI50 [30] 772 nM | GI50 [52] 3270 nM | GI50 [31] 920 nM | GI50 [32] 1390 nM | GI50 [53] 1490 nM | GI50 [33] 2550 nM | GI50 [34] 2290 nM | GI50 [35] 1830 nM | GI50 [36] 2870 nM | GI50 [54] 2640 nM | GI50 [37] 817 nM | GI50 [38] 1470 nM | GI50 [39] 873 nM | GI50 [40] 2570 nM | GI50 [55] 2550 nM | GI50 [41] 2520 nM | GI50 [42] 783 nM | GI50 [43] 2620 nM | GI50 [56] 2190 nM | GI50 [57] 1560 nM
15600 nM: TGI [38]
30600 nM: TGI [46]
11900 nM: TGI [44]
8920 nM: TGI [43]
19300 nM: TGI [37]
5890 nM: TGI [3]
9860 nM: TGI [41]
